Patent publication US20250368686A1, “PEPTIDE DRUGS FOR S[…] D[…] BLOCKING HOMO- AND HETERO-DIMERIZATION OF OPIOID RECEPTORS” (OKINAWA INSTITUTE OF SCIENCE AND TECHNOLOGY SCHOOL …, priority 2022, published 2025)
Where a name gives a salt, the structure may show the parent alone. Read-outs that look alike come from different tables or passages of the source. Where no end group is shown, it is not given here.

Legend:
T24 cells = experiment: LDH cytotoxicity assay in T24 cells; type: cell-based, human; conditions: 48-h exposure, 50, 100 and 200 μM
Experimental: (§1) Cytotoxicity was measured by subtracting LDH content in remaining viable cells from total LDH in untreated controls.

hippocampal neurons = experiment: LDH cytotoxicity assay in primary culture of hippocampal neurons; type: cell-based; conditions: hippocampal neurons DIV8, DIV12, DIV14; 48, 96 and 144-hour exposures, 100 μM
Experimental: as §1
Treatments of neurons with Trition-100 (1%) and DMSO (10%) for 48 h were used as positive controls.

[1] = molecular target: T1, DOR and MOR (DM) heterodimers (Rattus norvegicus, UniProt P33535); experiment: DM heterodimerisation, two-colour single-molecule imaging in CHO-K1 cells (colocalisation index, heterodimer lifetime); type: cell-based; conditions: for DM colocalisation, competition by expressed SNAPf-tagged TM peptides: CHO-K1 cells expressing DOR-mGFP, MOR-Halo and the TM peptide
T1 construct: expressed in transfected cells; host or cells: CHO-K1 cells stably co-expressing DOR and MOR
T1 sequence (P33535 whole entry, one chain of several): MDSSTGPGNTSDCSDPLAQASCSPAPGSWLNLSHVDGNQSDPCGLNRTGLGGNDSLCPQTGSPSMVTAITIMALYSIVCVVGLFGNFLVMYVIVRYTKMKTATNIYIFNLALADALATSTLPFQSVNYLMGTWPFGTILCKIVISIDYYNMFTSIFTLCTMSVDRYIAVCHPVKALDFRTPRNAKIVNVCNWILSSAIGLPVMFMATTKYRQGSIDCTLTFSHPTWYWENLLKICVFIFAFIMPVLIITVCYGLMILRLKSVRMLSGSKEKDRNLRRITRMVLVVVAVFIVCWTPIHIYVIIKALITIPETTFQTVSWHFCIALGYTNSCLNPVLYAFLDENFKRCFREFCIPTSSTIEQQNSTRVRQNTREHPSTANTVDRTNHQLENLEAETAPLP

MOR [2] = molecular target: T2, MOR (Rattus norvegicus, UniProt P33535); type: cell-based; design: fluorescent tag protein (not specified for this assay); expressed in transfected cells; host or cells: CHO-K1 (M cells, MD cells); for Ca2+ mobilisation CHO-K1 stably expressing Gqi5; conditions: 0.5 μM agonist; for MOR internalisation: 60-min observations
T2 sequence (P33535 whole entry): as the sequence (P33535 whole entry, one chain of several) above

DOR [3] = molecular target: T3, DOR (Rattus norvegicus, UniProt P33533); type: cell-based; design: fluorescent tag protein (not specified for this assay); expressed in transfected cells; host or cells: CHO-K1 (D cells, MD cells); conditions: for DOR internalisation, effect of agonist: 0.5 μM agonist, D cells and MD cells
T3 sequence (P33533 whole entry): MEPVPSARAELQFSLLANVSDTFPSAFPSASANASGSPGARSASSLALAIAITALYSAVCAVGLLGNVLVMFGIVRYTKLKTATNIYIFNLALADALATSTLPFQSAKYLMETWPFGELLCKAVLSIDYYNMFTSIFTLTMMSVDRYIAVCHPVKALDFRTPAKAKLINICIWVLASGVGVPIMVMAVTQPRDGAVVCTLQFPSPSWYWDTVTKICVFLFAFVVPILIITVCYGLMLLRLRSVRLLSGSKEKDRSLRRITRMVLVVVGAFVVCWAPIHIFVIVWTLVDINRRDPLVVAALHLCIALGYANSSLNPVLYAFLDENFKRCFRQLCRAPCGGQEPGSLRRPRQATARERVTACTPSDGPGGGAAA

DOR [4] = molecular target: T3, DOR; type: cell-based; design: expressed in transfected cells; host or cells: CHO-K1 (A11, A14); T24 (A17); CHO-K1 stably expressing Gqi5 (A20); conditions: CHO-K1 cells, addition alone
DOR [5] = molecular target: T3, DOR; type: cell-based; design: expressed in transfected cells; host or cells: CHO-K1 (A11, A14); T24 (A17); CHO-K1 stably expressing Gqi5 (A20); conditions: T24 cells, addition alone
MOR [6] = molecular target: T2, MOR; type: cell-based; design: expressed in transfected cells; host or cells: CHO-K1 (A10, A13); T24 (A16); CHO-K1 stably expressing Gqi5 (A19); conditions: T24 cells, addition alone
MOR [7] = molecular target: T2, MOR; type: cell-based; design: fluorescent tag protein (not specified for this assay); expressed in transfected cells; host or cells: CHO-K1 (M cells, MD cells); for Ca2+ mobilisation CHO-K1 stably expressing Gqi5
MOR [8] = molecular target: T2, MOR; type: cell-based; design: expressed in transfected cells; host or cells: CHO-K1 (A10, A13); T24 (A16); CHO-K1 stably expressing Gqi5 (A19); conditions: CHO-K1 cells, addition alone
MOR [9] = type: cell-based, rat; conditions: D- and K-cells

For SDTFPSAFPSASANASGSPGARS [Dpep(20-42)DM], the “cytotoxicity (LDH)” value (T24 cells) was “no toxicity” and the “cytotoxicity (LDH)” value (hippocampal neurons) was “little toxicity”.
With “MOR's N-term+TM1: aa53-99 sequence of MOR conjugated with the SNAPf tag, expressed in cells (NDSLCPQTGSPSMVTAITIMALYSIVCVVGLFGNFLVMYVIVRYTKM; cysteine pairing not given here; also: conjugated with SNAPf tag)” the “DM colocalisation, competition by expressed SNAPf-tagged TM peptides” value [1] was “competes with DM dimers more effectively”.
“LSHVDGNQSDPCGLNRTGLGGNDSLCPQTG [Mpep(32-61)MD]” was tested, and the DM colocalisation index ([1]; soluble peptides, 10 μM final, added to cells stably co-expressing WT-DOR and MOR) was “largest reductions”.
In the case of “MOR's TM1: MOR's TM1 (aa71-94) conjugated with the SNAPf tag, expressed in cells (IMALYSIVCVVGLFGNFLVMYVIV; also: conjugated with SNAPf tag)”, the “DM colocalisation, competition by expressed SNAPf-tagged TM peptides” value [1] is reported as “lowered the DM colocalisation”.
`C=CCN1C[C@H](C)N([C@H](c2ccc(C(=O)N(CC)CC)cc2)c2cccc(OC)c2)C[C@H]1C` [SNC-80] was tested, and the “MOR internalisation, effect of agonist” value (MOR [2]; M cells and MD cells) was “induced”, the “DOR internalisation, effect of agonist” value (DOR [3]) was “induced dramatic DOR internalisation” and the “Fraction of internalized molecules” value (DOR [4]) was 61.6 ± 1.7 %. For the same molecule, the “Residency time of internalized molecules” value (DOR [4]) was 10.8 ± 0.9 min, the “Fraction of internalized molecules” value (DOR [5]) was 56.5 ± 1.9 % and the “Residency time of internalized molecules” value (DOR [5]) was 8.9 ± 1.0 min.
With `CN1CC[C@]23c4c5ccc(O)c4O[C@H]2[C@@H](O)C=C[C@H]3[C@H]1C5` [morphine] the “DOR internalisation, effect of agonist” value (DOR [3]) was “hardly affected”.
In the case of `C[C@@H](NC(=O)[C@@H](N)Cc1ccc(O)cc1)C(=O)NCC(=O)N(C)[C@@H](Cc1ccccc1)C(=O)NCCO` [DAMGO, [D-Ala^2, N-Mc-Phet, Gly^5-ol]-enkephalin acetate salt], the “Fraction of internalized molecules” value (MOR [6]) is reported as 26.3 ± 1.1 %, the “Residency time of internalized molecules” value (MOR [6]) is reported as 6.5 ± 1.2 min and the MOR internalisation (MOR [2]; M cells) is reported as 31.8%. For the same molecule, the MOR internalisation (MOR [2]; MD cells) was 51.1%, the “DM heterodimer lifetime, effect of agonist” value ([1]; 0.5 μM agonist, within 5 min after addition) was “prolonged” and the “DM colocalisation index, effect of agonist” value ([1]; 0.5 μM agonist, within 5 min after addition, agonist-bound MOR with DOR) was “higher”. For the same molecule, the “intracellular Ca2+ mobilisation” value (MOR [7]; M-cells) was “induced”, the “intracellular Ca2+ mobilisation” value (MOR [7]; MD-cells, compared with M-cells) was “greatly enhanced” and the DOR internalisation (DOR [3]; MD cells, 0.5 μM MOR agonist, 4.3% without DAMGO addition) was 13.3%. For the same molecule, the “Fraction of internalized molecules” value (MOR [8]) was 28.1 ± 1.7 %, the “Residency time of internalized molecules” value (MOR [8]) was 11.3 ± 1.9 min and the “intracellular Ca2+ mobilisation” value (MOR [9]) was “not”.
